The conditions of data set [1]: akkermansia muciniphila, 12 h, 2 µM.
Description: The drug is tested on Akkermansia muciniphila strain: ATCC BAA-835 for biotransformation. The drug concentrations were measured before and after a 12-h incubation by liquid-chromatography-coupled mass spectrometry (LC–MS)
A short description of data set [2]: The drug is tested on Bacteroides coprophilus strain: DSM18228 for biotransformation. The drug concentrations were measured before and after a 12-h incubation by liquid-chromatography-coupled mass spectrometry (LC–MS). The settings on record: 2 µM.
Data set [3] in a line: The drug is tested on Bacteroides ovatus strain: ATCC8483 for biotransformation. The drug concentrations were measured before and after a 12-h incubation by liquid-chromatography-coupled mass spectrometry (LC–MS). As to conditions: 2 µM.
Data set [4] in a line: The drug is tested on Eubacterium ventriosum strain: ATCC27560 for biotransformation. The drug concentrations were measured before and after a 12-h incubation by liquid-chromatography-coupled mass spectrometry (LC–MS). The class given is ADME. Details: dose 2 uM, timepoint 0 vs 12 hours. As to conditions: 2 µM.
Data set [5] can be described thus: The drug is tested on Blautia hansenii strain: DSM20583 for biotransformation. The drug concentrations were measured before and after a 12-h incubation by liquid-chromatography-coupled mass spectrometry (LC–MS). As to conditions: 2 µM.
Data set [6] in a line: The drug is tested on Subdoligranulum variabile strain: DSM15176 for biotransformation. The drug concentrations were measured before and after a 12-h incubation by liquid-chromatography-coupled mass spectrometry (LC–MS). As to conditions: 2 µM.
Data set [7] can be described thus: The drug is tested on Clostridium sp. strain: fecal isolate for biotransformation. The drug concentrations were measured before and after a 12-h incubation by liquid-chromatography-coupled mass spectrometry (LC–MS). As to conditions: 2 µM.
Data set [8] in a line: The drug is tested on Enterococcus faecalis strain: V583 for biotransformation. The drug concentrations were measured before and after a 12-h incubation by liquid-chromatography-coupled mass spectrometry (LC–MS). The settings on record: 2 µM.
Data set [9] can be described thus: The drug is tested on Eubacterium hallii strain: DSM3353 for biotransformation. The drug concentrations were measured before and after a 12-h incubation by liquid-chromatography-coupled mass spectrometry (LC–MS). The settings on record: anaerobutyricum hallii, 2 µM.
For data set [10] the following is noted: roseburia intestinalis, 12 h, 2 µM.
Description: The drug is tested on Roseburia intestinalis strain: L1-82 for biotransformation. The drug concentrations were measured before and after a 12-h incubation by liquid-chromatography-coupled mass spectrometry (LC–MS)
Data set [11] in a line: The drug is tested on Bacteroides uniformis strain: ATCC8492 for biotransformation. The drug concentrations were measured before and after a 12-h incubation by liquid-chromatography-coupled mass spectrometry (LC–MS). The settings on record: 2 µM.
Data set [12] is described as follows: The drug is tested on Escherichia coli strain: BW25113 for biotransformation. The drug concentrations were measured before and after a 12-h incubation by liquid-chromatography-coupled mass spectrometry (LC–MS). The settings on record: 2 µM.
The nature of data set [13]: The drug is tested on Bifidobacterium breve strain: DSM20213 for biotransformation. The drug concentrations were measured before and after a 12-h incubation by liquid-chromatography-coupled mass spectrometry (LC–MS). As to conditions: 2 µM.
Data set [14] is described as follows: The drug is tested on Odoribacter splanchnicus strain: fecal isolate for biotransformation. The drug concentrations were measured before and after a 12-h incubation by liquid-chromatography-coupled mass spectrometry (LC–MS). As to conditions: 2 µM.
A short description of data set [15]: The drug is tested on Clostridium sporogenes strain: ATCC15579 for biotransformation. The drug concentrations were measured before and after a 12-h incubation by liquid-chromatography-coupled mass spectrometry (LC–MS). The settings on record: 2 µM.
For data set [16] the following is noted: bifidobacterium adolescentis, 12 h, 2 µM.
Description: The drug is tested on Bifidobacterium adolescentis strain: ATCC 15703 for biotransformation. The drug concentrations were measured before and after a 12-h incubation by liquid-chromatography-coupled mass spectrometry (LC–MS)
The conditions of data set [17]: limosilactobacillus reuteri cf48-3a, 12 h, 2 µM.
Description: The drug is tested on Lactobacillus reuteri CF48-3A strain: BEI HM-102 for biotransformation. The drug concentrations were measured before and after a 12-h incubation by liquid-chromatography-coupled mass spectrometry (LC–MS)
For data set [18] the following is noted: segatella copri, 12 h, 2 µM.
Description: The drug is tested on Prevotella copri strain: DSM18205 for biotransformation. The drug concentrations were measured before and after a 12-h incubation by liquid-chromatography-coupled mass spectrometry (LC–MS)
For data set [19] the following is noted: bacteroides fragilis, 12 h, 2 µM.
Description: The drug is tested on Bacteroides fragilis strain: 3397 (T10) for biotransformation. The drug concentrations were measured before and after a 12-h incubation by liquid-chromatography-coupled mass spectrometry (LC–MS)

In the case of `COC(=O)Nc1nc2ccc(C(=O)c3ccccc3)cc2[nH]1` [MEBENDAZOLE], the “Bacterial Biotransformation” value is reported as “Compound NOT metabolized” in data set [1]; “Compound NOT metabolized” in [2]; “Compound NOT metabolized” in [3]; “Compound NOT metabolized” in [4]; “Compound metabolized” in [5]; “Compound NOT metabolized” in [6]. The “Bacterial Biotransformation” value in [7] is recorded as “Compound metabolized”; in data set [8] it was “Compound NOT metabolized”; in data set [9] it was “Compound NOT metabolized”; in data set [10] it was “Compound NOT metabolized”; in data set [11] it was “Compound metabolized”; in [12] it was “Compound NOT metabolized”. Moreover, the “Bacterial Biotransformation” value is listed as “Compound NOT metabolized” in data set [13] and “Compound metabolized” in data set [14].
With `Cc1nc(Nc2ncc(C(=O)Nc3c(C)cccc3Cl)s2)cc(N2CCN(CCO)CC2)n1.O` [DASATINIB], the “Bacterial Biotransformation” value is listed as “Compound NOT metabolized” in data set [15]; “Compound metabolized” in data set [1]; “Compound NOT metabolized” in [2]; “Compound NOT metabolized” in data set [3]; “Compound NOT metabolized” in data set [4]; “Compound metabolized” in data set [5]. In addition, the “Bacterial Biotransformation” value in [6] is “Compound metabolized”; in [7] it was “Compound metabolized”; in data set [8] it was “Compound NOT metabolized”; in data set [11], “Compound NOT metabolized”; in data set [16], “Compound metabolized”; in data set [12], “Compound NOT metabolized”. The “Bacterial Biotransformation” value in data set [17] is recorded as “Compound metabolized”; in data set [13], “Compound NOT metabolized”; in data set [18], “Compound metabolized”; in data set [19] it was “Compound metabolized”; in [14], “Compound NOT metabolized”.
For `CCN(CC)C(C)CN1c2ccccc2Sc2ccccc21` (stereo not drawn) [ETHOPROPAZINE], the “Bacterial Biotransformation” value is “Compound NOT metabolized” in data set [15]; “Compound NOT metabolized” in [1]; “Compound NOT metabolized” in [2]; “Compound metabolized” in data set [3]; “Compound NOT metabolized” in data set [4]; “Compound metabolized” in data set [5]. For the same molecule, the “Bacterial Biotransformation” value is given as “Compound NOT metabolized” in data set [6]; “Compound metabolized” in data set [7]; “Compound NOT metabolized” in data set [8]; “Compound NOT metabolized” in [9]; “Compound NOT metabolized” in data set [10]; “Compound metabolized” in data set [11]. Further, the “Bacterial Biotransformation” value in [16] was “Compound NOT metabolized”; in data set [12] it was “Compound metabolized”; in data set [13], “Compound NOT metabolized”; in data set [19], “Compound NOT metabolized”; in data set [14] it was “Compound metabolized”.
Turning to `CCN(CC)CC#CCOC(=O)C(O)(c1ccccc1)C1CCCCC1.Cl` (stereo not drawn) [OXYBUTYNIN CHLORIDE], the “Bacterial Biotransformation” value in data set [15] is listed as “Compound NOT metabolized”; in [3], “Compound NOT metabolized”; in data set [4], “Compound metabolized”; in data set [5], “Compound metabolized”; in data set [6] it was “Compound NOT metabolized”; in data set [7] it was “Compound metabolized”. The “Bacterial Biotransformation” value in data set [8] is on record as “Compound metabolized”; in [9], “Compound NOT metabolized”; in data set [10], “Compound NOT metabolized”; in data set [11], “Compound metabolized”; in data set [16], “Compound NOT metabolized”; in data set [12], “Compound NOT metabolized”. For the same molecule, the figures for the “Bacterial Biotransformation” value in data set [17], in [13] and in [14] were “Compound NOT metabolized”, “Compound NOT metabolized” and “Compound metabolized”, respectively.
Turning to `CCOC(=O)[C@H](CCc1ccccc1)N[C@@H](C)C(=O)N1CCC[C@H]1C(=O)O.O=C(O)/C=C\C(=O)O` [ENALAPRIL MALEATE], the “Bacterial Biotransformation” value in data set [15] was “Compound NOT metabolized”; in data set [1], “Compound NOT metabolized”; in data set [3], “Compound NOT metabolized”; in [4], “Compound NOT metabolized”; in data set [5] it was “Compound metabolized”; in data set [6], “Compound NOT metabolized”. Also, the “Bacterial Biotransformation” value in data set [8], in data set [9], in data set [10], in data set [11], in data set [16] and in data set [12] was “Compound NOT metabolized” each time. In addition, the “Bacterial Biotransformation” value in [17], in data set [13], in data set [18], in data set [19] and in data set [14] was “Compound NOT metabolized” throughout.
Regarding `CN(C)CCC=C1c2ccccc2COc2ccccc21` [DOXEPIN], the “Bacterial Biotransformation” value in data set [15], in [2], in data set [3], in [4], in data set [5] and in data set [6] was “Compound NOT metabolized” throughout. The “Bacterial Biotransformation” value in [8], in data set [9], in data set [10], in data set [11], in data set [16] and in data set [12] was “Compound NOT metabolized” in each case. In addition, the “Bacterial Biotransformation” value in data set [13], in [18], in data set [19] and in data set [14] was “Compound NOT metabolized” each time.
`CC(C)c1c(CN(C)C(C)Cc2ccccc2)n(C)n(-c2ccccc2)c1=O` (stereo not drawn) [FAMPROFAZONE]: the “Bacterial Biotransformation” value in data set [15] is “Compound NOT metabolized”; in [1] it was “Compound metabolized”; in [2] it was “Compound metabolized”; in [3], “Compound metabolized”; in data set [4], “Compound NOT metabolized”; in data set [5] it was “Compound metabolized”. Besides, the “Bacterial Biotransformation” value is recorded as “Compound metabolized” in data set [6]; “Compound NOT metabolized” in data set [8]; “Compound NOT metabolized” in data set [9]; “Compound NOT metabolized” in data set [10]; “Compound metabolized” in data set [11]; “Compound NOT metabolized” in data set [16]. In addition, the “Bacterial Biotransformation” value in data set [12] is recorded as “Compound NOT metabolized”; in [17], “Compound metabolized”; in data set [13], “Compound NOT metabolized”; in data set [18], “Compound metabolized”; in data set [19], “Compound metabolized”; in data set [14], “Compound metabolized”.
On to `CN1[C@@H]2CC[C@H]1C[C@@H](OC(=O)C(CO)c1ccccc1)C2` (stereo partly drawn) [ATROPINE], for which the “Bacterial Biotransformation” value in data set [1], in data set [2], in [4], in data set [5], in data set [6] and in [9] was “Compound NOT metabolized” throughout. For the same molecule, the “Bacterial Biotransformation” value in data set [10], in [11], in data set [16], in data set [17], in data set [13] and in [18] was “Compound NOT metabolized” throughout. In addition, the “Bacterial Biotransformation” value in data set [19] and in data set [14] was “Compound NOT metabolized” throughout.

Values taken from ChEMBL document CHEMBL5303573, “Mapping human microbiome drug metabolism by gut bacteria and their genes” (Nature, 2019).
